Values quoted from earlier work, collected in patent US20160199460A1, “COMPOSITIONS FOR REDUCING THE DELETERIOUS EFFECTS OF STRESS AND AGING” (HydroPep, LLC, priority 2010, published 2016).

System: aging individuals (>50 years of age)
Conditions: oral D-ribose; aging individuals (>50 years of age) with tiredness for at least one month

O=C[C@H](O)[C@H](O)[C@H](O)CO [D-ribose]
Physical fatigue and mental outlook: lessening physical fatigue
